Test results: ChEMBL document CHEMBL4680141, “Novel benzimidazole-acrylonitrile hybrids and their derivatives: Design, synthesis and antimycobacterial activity” (2020)
≈ marks a conversion by molar mass, not a printed value.

Key:
Format in all cases: functional
[1] = test system: Mycobacterium tuberculosis; assay: Antimycobacterial activity against Mycobacterium tuberculosis H37Rv assessed as inhibition of bacterial growth by MABA assay
[2] = test system: Mycobacterium tuberculosis; assay: Antimycobacterial activity against Mycobacterium tuberculosis H37Rv assessed as inhibition of bacterial growth incubated for 7 days by MABA assay; details: 168 h, time 7 day
[3] = test system: Mycobacterium tuberculosis; assay: Antimycobacterial activity against dormant form of Mycobacterium tuberculosis H37Rv assessed as log fold reduction in bacterial count at 10 ug/ml under nutrient starvation condition after 7 days by MPN assay; details: dose 10 µg/ml; time 7 day

## N#C/C(=C\c1ccccc1)n1nnc2ccccc21
[1]
  MIC: 6.25 µg/mL (≈ 25.4 µM)

## CN1CCN(c2ccc(/C=C(\C#N)c3nc4ccccc4[nH]3)cc2)CC1
[2]
  MIC: > 25 µg/mL

## COc1cccc(N2CCN(c3ccc(/C=C(\C#N)c4nc5ccccc5[nH]4)cc3)CC2)c1
[2]
  MIC: > 25 µg/mL

## N#C/C(=C\c1ccc(N2CCN(c3ccc(Cl)cc3)CC2)cc1)c1nc2ccccc2[nH]1
[2]
  MIC: > 25 µg/mL

## N#C/C(=C\c1ccc(N2CCN(Cc3ccccc3)CC2)cc1)c1nc2ccccc2[nH]1
[2]
  MIC: > 25 µg/mL

## N#CC(Cc1ccc(N2CCN(c3ccccc3)CC2)cc1)c1nc2ccccc2[nH]1 (stereo not given)
[2]
  MIC: > 25 µg/mL

## N#C/C(=C\c1ccc(N2CCN(c3ccc(Br)cc3)CC2)cc1)c1nc2ccccc2[nH]1
[2]
  MIC: > 25 µg/mL

## N#C/C(=C\c1ccc(N2CCN(c3ccc(F)cc3)CC2)cc1)c1nc2ccccc2[nH]1
[2]
  MIC: > 25 µg/mL

## N#C/C(=C\c1ccc(N2CCN(C3CCCCC3)CC2)cc1)c1nc2ccccc2[nH]1
[2]
  MIC: > 25 µg/mL

## COc1ccc(N2CCN(c3ccc(CC(C#N)c4nc5ccccc5[nH]4)cc3)CC2)cc1 (stereo not given)
[2]
  MIC: > 25 µg/mL

## N#C/C(=C\c1ccc(N2CCN(c3cccc(Cl)c3)CC2)cc1)c1nc2ccccc2[nH]1
[2]
  MIC: > 25 µg/mL

## Cc1ccc(N2CCN(c3ccc(/C=C(\C#N)c4nc5ccccc5[nH]4)cc3)CC2)cc1
[2]
  MIC: 0.78 µg/mL (≈ 1.86 µM)
[3]
  FC: 2.8

## Cc1ccc(N2CCN(c3ccc(CC(C#N)c4nc5ccccc5[nH]4)cc3)CC2)cc1 (stereo not given)
[2]
  MIC: > 25 µg/mL

## N#C/C(=C\c1ccc(N2CCN(Cc3ccc(F)cc3)CC2)cc1)c1nc2ccccc2[nH]1
[2]
  MIC: 25 µg/mL (≈ 57.1 µM)

## N#C/C(=C\c1ccc(N2CCN(c3ccccc3)CC2)cc1)c1nc2ccccc2[nH]1
[2]
  MIC: 6.25 µg/mL (≈ 15.4 µM)

## CC(=O)N1CCN(c2ccc(/C=C(\C#N)c3nc4ccccc4[nH]3)cc2)CC1
[2]
  MIC: 12.5 µg/mL (≈ 33.7 µM)

## COc1ccc(N2CCN(c3ccc(/C=C(\C#N)c4nc5ccccc5[nH]4)cc3)CC2)cc1
[2]
  MIC: 6.25 µg/mL (≈ 14.4 µM)

## O=C(O)c1cn(C2CC2)c2cc(N3CCNCC3)c(F)cc2c1=O [CIPROFLOXACIN]
[3]
  FC: 1.5

## CC[C@@H](CO)NCCN[C@@H](CC)CO [ETHAMBUTOL]
[2]
  MIC: 1.56 µg/mL (≈ 7.64 µM)

## NNC(=O)c1ccncc1 [ISONIAZID]
[2]
  MIC: 0.05 µg/mL (≈ 0.365 µM)
[3]
  FC: 1.5

## COc1c(N2C[C@@H]3CCCN[C@@H]3C2)c(F)cc2c(=O)c(C(=O)O)cn(C3CC3)c12 [MOXIFLOXACIN]
[3]
  FC: 1.5

## CO[C@H]1/C=C/O[C@@]2(C)Oc3c(C)c(O)c4c(O)c(c(/C=N/N5CCN(C)CC5)c(O)c4c3C2=O)NC(=O)/C(C)=C\C=C\[C@H](C)[C@H](O)[C@@H](C)[C@@H](O)[C@@H](C)[C@H](OC(C)=O)[C@@H]1C [RIFAMPIN]
[2]
  MIC: 0.1 µg/mL (≈ 0.122 µM)
[3]
  FC: 1.5
